Test results: ChEMBL document CHEMBL1201862, “PubChem BioAssay data set” (2004)
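Following 48 hours of exposure in 96-well plates, responses at five concentrations were used to interpolate endpoints linearly. Here, GI50 denotes the concentration required for 50% inhibition of growth.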 The source made the active and inactive calls. No stated cut-off is given here; in the data, active = GI50 up to about 1.1 µM and inactive = higher.

Key:
Assay in all cases: DTP human tumour cell line panel, 48 h
[1] = tested on: HT-29
[2] = tested on: SK-OV-3
[3] = tested on: HCC 2998
[4] = tested on: HL-60
[5] = tested on: SN12C
[6] = tested on: OVCAR-5
[7] = tested on: OVCAR-8
[8] = tested on: HOP-62
[9] = tested on: NCI-H23
[10] = tested on: LOX IMVI
[11] = tested on: NCI-H460
[12] = tested on: KM12
[13] = tested on: CCRF-CEM
[14] = tested on: SR
[15] = tested on: BT-549
[16] = tested on: K562
[17] = tested on: OVCAR-3
[18] = tested on: COLO 205
[19] = tested on: MCF7

| Compound | GI50 [1] | GI50 [2] | GI50 [3] | GI50 [4] | GI50 [5] | GI50 [6] | GI50 [7] | GI50 [8] | GI50 [9] | GI50 [10] | GI50 [11] | GI50 [12] | GI50 [13] | GI50 [14] | GI50 [15] | GI50 [16] | GI50 [17] | GI50 [18] | GI50 [19] |
| --- | --- | --- | --- | --- | --- | --- | --- | --- | --- | --- | --- | --- | --- | --- | --- | --- | --- | --- | --- |
| COc1cccc(C[C@H]2COC(=O)[C@]2(O)Cc2cccc(OC)c2)c1 | > 100 µM (inactive) | > 100 µM (inactive) | 70.8 µM (inactive) | 72.6 µM (inactive) | > 100 µM (inactive) | > 100 µM (inactive) | > 100 µM (inactive) | > 100 µM (inactive) | > 100 µM (inactive) | > 100 µM (inactive) | 48.2 µM (inactive) | 91.2 µM (inactive) | > 100 µM (inactive) | > 100 µM (inactive) | > 100 µM (inactive) | > 100 µM (inactive) | 97.5 µM (inactive) | > 100 µM (inactive) |  |
| CCc1ccccc1NC(=O)C(=O)C(C#N)c1c(Cl)cccc1Cl (stereo not given) | > 100 µM (inactive) | > 100 µM (inactive) |  | > 100 µM (inactive) | > 100 µM (inactive) |  |  |  | > 100 µM (inactive) | > 100 µM (inactive) |  | > 100 µM (inactive) | > 100 µM (inactive) | > 100 µM (inactive) |  | > 100 µM (inactive) | > 100 µM (inactive) |  |  |
| COC12c3ccccc3-c3ccccc3C1[C@H]1C(=O)OC(=O)[C@H]12 (stereo not given in full) | > 10 µM (inactive) | > 10 µM (inactive) | > 10 µM (inactive) | > 10 µM (inactive) | > 10 µM (inactive) | > 10 µM (inactive) | > 10 µM (inactive) | > 10 µM (inactive) | > 10 µM (inactive) | > 10 µM (inactive) | > 10 µM (inactive) | > 10 µM (inactive) | > 10 µM (inactive) | > 10 µM (inactive) |  | > 10 µM (inactive) | > 10 µM (inactive) | > 10 µM (inactive) | > 10 µM (inactive) |
| CC(=O)O[C@@H]1[C@H](OC2CCCCC2(c2ccccc2)c2ccccc2)O[N+]([O-])=CC12CCCCC2 (stereo not given in full) | 18.6 µM (inactive) | 13.4 µM (inactive) | 17.1 µM (inactive) | < 0.01 µM (active) | 19.6 µM (inactive) | 15.8 µM (inactive) | 25.5 µM (inactive) |  | 10.2 µM (inactive) | 22 µM (inactive) | 18.2 µM (inactive) | 17.2 µM (inactive) | 0.17 µM (active) | 32 µM (inactive) |  | 54.2 µM (inactive) | 14.9 µM (inactive) | 16.4 µM (inactive) | 18.2 µM (inactive) |
| O=S(=O)(O)c1ccccc1/N=N\c1ccc(/N=N/c2c(O)ccc3ccccc23)c(S(=O)(=O)O)c1 | > 100 µM (inactive) | > 100 µM (inactive) |  |  | > 100 µM (inactive) | > 100 µM (inactive) | > 100 µM (inactive) | > 100 µM (inactive) | > 100 µM (inactive) |  |  | > 100 µM (inactive) | 83.6 µM (inactive) |  | > 100 µM (inactive) | > 100 µM (inactive) | > 100 µM (inactive) | > 100 µM (inactive) |  |
| COc1ccc(N2C(=O)C3c4[nH]c5ccc(C)cc5c4C4CCC(C)CC4C3C2=O)cc1 (stereo not given) | > 100 µM (inactive) | 25.3 µM (inactive) |  | > 10 µM (inactive) | > 100 µM (inactive) | > 100 µM (inactive) | > 100 µM (inactive) |  | 59 µM (inactive) | > 100 µM (inactive) | > 100 µM (inactive) |  | 18.5 µM (inactive) | 23.2 µM (inactive) | > 100 µM (inactive) | 66.7 µM (inactive) | 58.1 µM (inactive) | > 100 µM (inactive) |  |
| Clc1c(Cl)c(Cl)c2c(nnn2C2CCCO2)c1Cl (stereo not given) | 33.6 µM (inactive) | 75.9 µM (inactive) | 29.8 µM (inactive) | 5.79 µM (inactive) | 40.7 µM (inactive) | 41.7 µM (inactive) | 29.3 µM (inactive) | 40.5 µM (inactive) | 19.6 µM (inactive) |  | 13.9 µM (inactive) |  | 26.4 µM (inactive) | 32.9 µM (inactive) |  | 24.3 µM (inactive) | 34.6 µM (inactive) | 24.2 µM (inactive) | 33.9 µM (inactive) |
| COc1ccc(C(=O)C(C(=O)CCC(=O)Nc2cccc(Cl)c2)c2ccc(OC)cc2)cc1 (stereo not given) | > 100 µM (inactive) | > 100 µM (inactive) | > 100 µM (inactive) | > 100 µM (inactive) | > 100 µM (inactive) | 9.42 µM (inactive) | > 100 µM (inactive) | > 100 µM (inactive) | > 100 µM (inactive) |  | > 100 µM (inactive) | > 100 µM (inactive) | > 100 µM (inactive) | > 100 µM (inactive) |  | > 100 µM (inactive) | > 100 µM (inactive) | > 100 µM (inactive) |  |
| CCOc1ccc(Nc2nc3c(s2)C(=O)c2ccccc2C3=O)cc1 |  | 19.7 µM (inactive) | 17.1 µM (inactive) | 3.19 µM (inactive) | 3.76 µM (inactive) | 21.6 µM (inactive) |  | 17.7 µM (inactive) | 8.13 µM (inactive) | 3.76 µM (inactive) | 15 µM (inactive) | 13.7 µM (inactive) | 7.82 µM (inactive) |  |  | 3.36 µM (inactive) | 3.04 µM (inactive) | 19.8 µM (inactive) | 4.81 µM (inactive) |
| CC(=O)OCCOCn1c2ccccc2c2c3c(c4c5ccccc5n(COCCOC(C)=O)c4c21)C(=O)N(Cc1ccccc1)C3=O | > 100 µM (inactive) | > 100 µM (inactive) | > 100 µM (inactive) | > 100 µM (inactive) | > 100 µM (inactive) | > 100 µM (inactive) | > 100 µM (inactive) | > 100 µM (inactive) | > 100 µM (inactive) | > 100 µM (inactive) | > 100 µM (inactive) |  | > 100 µM (inactive) |  |  | > 100 µM (inactive) |  | > 100 µM (inactive) |  |
| Cc1ccc([N+](=O)[O-])cc1NC1=NCCO1 | > 100 µM (inactive) | > 100 µM (inactive) | > 100 µM (inactive) | > 100 µM (inactive) | > 100 µM (inactive) | > 100 µM (inactive) | > 100 µM (inactive) | > 100 µM (inactive) | > 100 µM (inactive) | > 100 µM (inactive) | > 100 µM (inactive) | > 100 µM (inactive) | > 100 µM (inactive) | 45.8 µM (inactive) |  | > 100 µM (inactive) | > 100 µM (inactive) | > 100 µM (inactive) | > 100 µM (inactive) |
| CO/N=C(/C)c1cccc(Nc2nc3ccccc3c3[nH]c4ccccc4c23)c1 | 2.49 µM (inactive) | 17.1 µM (inactive) |  | 12.7 µM (inactive) | 11.5 µM (inactive) | 6.82 µM (inactive) | 6.22 µM (inactive) | 9.66 µM (inactive) | 10.3 µM (inactive) | 10.6 µM (inactive) | 2.52 µM (inactive) | 3.99 µM (inactive) |  | 5.86 µM (inactive) |  | 5.97 µM (inactive) | 5.7 µM (inactive) | 7.33 µM (inactive) | 5.16 µM (inactive) |
| O=C1c2c(c3c4ccccc4n4c3c3c2c2ccccc2n3C/C=C\C4)C(=O)N1Cc1ccccc1 | > 100 µM (inactive) | > 100 µM (inactive) | > 100 µM (inactive) | > 100 µM (inactive) | > 100 µM (inactive) | > 100 µM (inactive) | > 100 µM (inactive) | > 100 µM (inactive) | > 100 µM (inactive) | > 100 µM (inactive) | > 100 µM (inactive) | > 100 µM (inactive) | > 100 µM (inactive) | > 100 µM (inactive) |  | > 100 µM (inactive) | > 100 µM (inactive) | > 100 µM (inactive) |  |
| C[C@H]1[C@@H](c2ccccc2)O[B-](c2ccccc2)(c2ccccc2)[N+]1(C)C | 10 µM (inactive) | > 100 µM (inactive) |  | > 100 µM (inactive) | 99.3 µM (inactive) | > 100 µM (inactive) | 79.3 µM (inactive) | > 100 µM (inactive) | 70.1 µM (inactive) | > 100 µM (inactive) | > 100 µM (inactive) | > 100 µM (inactive) | > 100 µM (inactive) | 21.5 µM (inactive) | 33.5 µM (inactive) | 48.5 µM (inactive) | 40.6 µM (inactive) | 16.1 µM (inactive) |  |
| Cc1ccc2nc(-c3ccccc3)c(N=O)n2c1 | 48 µM (inactive) | > 100 µM (inactive) |  |  | 20.2 µM (inactive) | 43.5 µM (inactive) | 41 µM (inactive) | 56 µM (inactive) | 36.1 µM (inactive) | 46.5 µM (inactive) | 50.1 µM (inactive) | 40.6 µM (inactive) | 38.5 µM (inactive) |  | 37.1 µM (inactive) | 91.2 µM (inactive) | 32.4 µM (inactive) | 35.7 µM (inactive) | 11.6 µM (inactive) |
| COc1ccc(S(=O)(=O)Nc2ccccc2C(=O)O)cc1 | > 100 µM (inactive) | > 100 µM (inactive) | > 100 µM (inactive) | > 100 µM (inactive) | > 100 µM (inactive) | > 100 µM (inactive) | > 100 µM (inactive) |  | > 100 µM (inactive) | > 100 µM (inactive) | > 100 µM (inactive) | > 100 µM (inactive) | > 100 µM (inactive) |  |  | > 100 µM (inactive) | > 100 µM (inactive) | > 100 µM (inactive) |  |
| CC(=O)OC1CC2CC(=O)CC1N2C (stereo not given) | > 100 µM (inactive) | > 100 µM (inactive) | > 100 µM (inactive) | > 100 µM (inactive) | > 100 µM (inactive) | > 100 µM (inactive) | > 100 µM (inactive) | > 100 µM (inactive) | > 100 µM (inactive) | > 100 µM (inactive) | > 100 µM (inactive) | > 100 µM (inactive) | > 100 µM (inactive) | > 100 µM (inactive) |  | > 100 µM (inactive) | > 100 µM (inactive) | > 100 µM (inactive) | > 100 µM (inactive) |
